One may read the IC50 as the midpoint of a concentration-inhibition curve. High values mean weaker potency in that assay, low ones greater potency in that assay.

From PMC10094297, “The Attenuation of Insulin/IGF-1 Signaling Pathway Plays a Crucial Role in the Myo-Inositol-Alleviated Aging in Caenorhabditis elegans” (International Journal of Molecular Sciences, 2023) come the findings set out here.

Assay [1] has as its target T1, PI3K p110α (Homo sapiens, UniProt P42336).
T1 construct: gene PIK3CA
The assay is described as follows: PI3 Kinase Activity/Inhibitor Assay Kit (Millipore […]-493), competitive biotinylated-PIP3/GRP1 ELISA, PIP2 substrate. The class given is biochemical.

In assay [2] the target is T2, PI3K p110β (Homo sapiens, UniProt P42338).
T2 construct: gene PIK3CB
The assay is described as above. In kind it is biochemical.

The structures appear in SMILES notation.

T2 sequence (P42338 whole entry): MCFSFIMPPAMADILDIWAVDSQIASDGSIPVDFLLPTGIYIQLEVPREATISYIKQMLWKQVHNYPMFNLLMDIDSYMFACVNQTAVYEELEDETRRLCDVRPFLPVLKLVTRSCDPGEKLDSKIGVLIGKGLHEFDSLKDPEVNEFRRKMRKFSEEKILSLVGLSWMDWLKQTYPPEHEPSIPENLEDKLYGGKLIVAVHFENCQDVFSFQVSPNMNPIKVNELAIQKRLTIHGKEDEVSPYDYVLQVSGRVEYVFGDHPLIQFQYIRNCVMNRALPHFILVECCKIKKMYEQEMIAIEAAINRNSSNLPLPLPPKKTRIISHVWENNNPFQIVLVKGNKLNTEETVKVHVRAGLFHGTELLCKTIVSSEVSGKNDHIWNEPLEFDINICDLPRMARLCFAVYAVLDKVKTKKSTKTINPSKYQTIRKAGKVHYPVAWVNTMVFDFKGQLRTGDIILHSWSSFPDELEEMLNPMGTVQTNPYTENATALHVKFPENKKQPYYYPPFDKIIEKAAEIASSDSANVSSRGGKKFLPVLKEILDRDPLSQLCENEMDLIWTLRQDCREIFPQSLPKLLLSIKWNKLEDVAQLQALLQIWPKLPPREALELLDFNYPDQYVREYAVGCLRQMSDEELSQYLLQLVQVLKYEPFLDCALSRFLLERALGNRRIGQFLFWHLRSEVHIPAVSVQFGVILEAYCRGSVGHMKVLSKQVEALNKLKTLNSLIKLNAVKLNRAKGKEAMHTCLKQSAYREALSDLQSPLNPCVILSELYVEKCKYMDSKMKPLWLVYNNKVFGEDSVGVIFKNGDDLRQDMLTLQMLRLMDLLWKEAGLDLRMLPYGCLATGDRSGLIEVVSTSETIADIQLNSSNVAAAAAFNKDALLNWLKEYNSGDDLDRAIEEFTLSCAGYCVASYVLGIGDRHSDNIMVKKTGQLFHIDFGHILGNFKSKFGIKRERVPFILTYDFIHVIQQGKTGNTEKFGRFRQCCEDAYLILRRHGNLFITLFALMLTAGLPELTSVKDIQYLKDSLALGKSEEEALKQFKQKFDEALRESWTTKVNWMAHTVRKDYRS
T1 sequence (P42336 whole entry): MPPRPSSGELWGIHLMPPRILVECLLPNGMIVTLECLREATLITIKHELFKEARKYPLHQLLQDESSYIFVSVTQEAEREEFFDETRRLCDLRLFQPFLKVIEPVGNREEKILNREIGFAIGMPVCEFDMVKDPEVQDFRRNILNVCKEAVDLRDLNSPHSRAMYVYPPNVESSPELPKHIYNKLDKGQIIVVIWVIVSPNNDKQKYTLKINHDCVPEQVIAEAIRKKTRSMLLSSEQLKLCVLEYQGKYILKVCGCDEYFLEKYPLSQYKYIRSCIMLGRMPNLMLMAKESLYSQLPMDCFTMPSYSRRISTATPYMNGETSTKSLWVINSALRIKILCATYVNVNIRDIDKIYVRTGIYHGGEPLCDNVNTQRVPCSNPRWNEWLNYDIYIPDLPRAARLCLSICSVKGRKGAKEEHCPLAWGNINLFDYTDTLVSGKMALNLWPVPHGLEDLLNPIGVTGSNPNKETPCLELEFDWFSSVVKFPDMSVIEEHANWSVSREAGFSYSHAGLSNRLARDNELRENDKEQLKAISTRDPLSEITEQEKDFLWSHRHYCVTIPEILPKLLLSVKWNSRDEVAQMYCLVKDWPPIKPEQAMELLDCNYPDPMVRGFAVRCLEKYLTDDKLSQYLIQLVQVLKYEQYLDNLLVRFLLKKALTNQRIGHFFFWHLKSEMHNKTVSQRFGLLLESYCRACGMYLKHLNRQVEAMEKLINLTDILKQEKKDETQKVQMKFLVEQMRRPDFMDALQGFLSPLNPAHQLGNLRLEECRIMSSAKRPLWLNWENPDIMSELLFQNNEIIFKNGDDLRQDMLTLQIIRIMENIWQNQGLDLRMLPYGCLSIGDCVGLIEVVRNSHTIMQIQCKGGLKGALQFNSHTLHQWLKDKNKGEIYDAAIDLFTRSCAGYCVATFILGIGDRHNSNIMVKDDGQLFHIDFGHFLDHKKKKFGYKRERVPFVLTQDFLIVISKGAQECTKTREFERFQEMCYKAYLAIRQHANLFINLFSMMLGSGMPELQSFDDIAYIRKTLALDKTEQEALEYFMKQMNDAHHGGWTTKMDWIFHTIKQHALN

Turning to `O[C@H]1[C@H](O)[C@@H](O)[C@H](O)[C@@H](O)[C@H]1O` [MI, Myo-inositol], the IC50 was determined as 90.2 µM in assay [1] and 21.7 µM in assay [2].
